# Assays:
# Type in all cases: physicochemical
# [1] = Stabilization effect on perfume under daylight exposure (Test Examples 92 to 181); parameters: key: ◯: no change; Δ: almost no change; x: change; settings: daylight exposure (80 MJ)
# Experimental: Each test sample was prepared for observation of the change of the odor of the test sample (determined by perfume coordinator) before and after daylight exposure (80 MJ).
# [2] = Drug stabilization effect under daylight exposure (Test Examples 182 to 211); parameters: key to Appearance (visual determination): ◯: no change; Δ: almost no change; x: change; settings: photostabilizer 0.05 wt %, daylight exposure (80 MJ); for Remaining ratio (%): liquid chromatography
# Experimental: (§1) For observation of the change of the appearance of each test sample (determination based on visual observation) and the measurement of the remaining ratio by liquid chromatography before and after daylight exposure (80 MJ), the test sample was prepared.
# [3] = Dye stabilization effect in blend with sequestering agents (Test Examples 212 to 275); settings: daylight exposure (80 MJ)
# Experimental: Each test sample was prepared for observation of the change of the appearance of each test sample (determined visually) and measurement of the color difference (ΔE) before and after daylight exposure (80 MJ).
# (§2) With a spectrophotometer, the color was measured on the Lab coordinate system, to calculate the color difference on the basis of the color before daylight exposure. More specifically, the color difference (ΔE) was calculated on the basis of the measured values (L1, a1, b1) before daylight exposure.
# [4] = Drug stabilization effect blended with sequestering agent (Test Examples 372 to 391); parameters: key to Appearance (visual determination): ◯: no change; Δ: almost no change; x: change; settings: photostabilizer blend amount 0.03, daylight exposure (80 MJ)
# Experimental: Then, the photostabilization effect of the pyridazine derivative in combination with sequestering agents on each drug and the change of the appearance of each composition were examined, by using the following formulation for assessment.
# as §1
# [5] = Dye stabilization effect under daylight exposure (Test Examples 6-91); parameters: key to Δ E: color difference ΔE in Lab vs. color before daylight exposure; key to Appearance (visual determination): ◯: no change; Δ: almost no change; x: change; settings: photostabilizer 0.05 wt %, daylight exposure (80 MJ)
# Experimental: For observation of the change of the appearance of each test sample (determination based on visual observation) and the measurement of color difference (ΔE) before and after daylight exposure (80 MJ), the test sample was prepared.
# as §2
# [6] = drug dl-α-tocopherol 2-L-ascorbic acid phosphate diester potassium salt 0.01 wt %
# [7] = dye Blue 1 (Brilliant Blue FCF) 0.0001 wt %
# [8] = dye Green 3 (Fast Green FCF) 0.001 wt %
# [9] = dye Red 227 (Acid Fuchsine D) 0.0001 wt %
# [10] = dye Yellow 5 (Sunset Yellow FCF) 0.001 wt %
# [11] = dyes Red 213 (Rhodamine B) 0.00001 + Blue 1 (Brilliant Blue FCF) 0.00001 wt %
# [12] = dyes Red 227 (Acid Fuchsine D) 0.0001 + Yellow 5 (Sunset Yellow FCF) 0.0001 wt %
# [13] = drug dibutylhydroxytoluene 0.01 wt %
# [14] = dyes Red 401 (Violanin R) 0.0001 + Blue 1 (Brilliant Blue FCF) 0.00001 wt %
# [15] = dyes Yellow 203 (Quinoline Yellow WS) 0.0001 + Yellow 5 (Sunset Yellow FCF) 0.0001 wt %
smiles,measurement,setting,value
"Oc1cc(N2CCCCC2)cnn1 [3-Hydroxy-5-piperidinopyridazine, 3-hydroxy-5-piperidinopyridazine]",odor determination,"[1]; base perfume Rose, photostabilizer 0.05 wt %",◯
same,odor determination,"[1]; base perfume Woody, photostabilizer 0.1 wt %",◯
same,odor determination,"[1]; natural perfume Lavender oil, photostabilizer 0.1 wt %",◯
same,odor determination,"[1]; natural perfume Rose oil, photostabilizer 0.05 wt %",◯
same,odor determination,"[1]; synthetic perfume Citral, photostabilizer 0.1 wt %",◯
same,odor determination,"[1]; synthetic perfume Linalyl acetate, photostabilizer 0.1 wt %",◯
same,Appearance (visual determination),[2]; [6],◯
same,Remaining ratio (%),[2]; [6],98.7%
same,Appearance (visual determination),[2]; drug salicylic acid 0.1 wt %,◯
same,Remaining ratio (%),[2]; drug salicylic acid 0.1 wt %,98.5%
same,Δ E,"[3]; dye Blue 1 (Brilliant Blue FCF) 0.001, photostabilizer 0.02, no sequestering agent",1.74
same,Δ E,"[3]; dye Blue 1 (Brilliant Blue FCF) 0.001, photostabilizer 0.02, with ethylenediaminehydroxyethyl trisodium triacetate 0.05",0.54
same,Δ E,"[3]; dye Blue 1 (Brilliant Blue FCF) 0.001, photostabilizer 0.02, with ethylenediaminetetraacetate trisodium 0.05",0.78
same,Δ E,"[3]; dye Blue 1 (Brilliant Blue FCF) 0.001, photostabilizer 0.02, with sodium metaphosphate 0.05",0.88
same,Δ E,"[3]; dyes Red 106 (Acid Red) 0.00001 + Yellow 203 (Quinoline Yellow WS) 0.0001, no sequestering agent, photostabilizer blend amount 0.01",1.08
same,Δ E,"[3]; dyes Red 106 (Acid Red) 0.00001 + Yellow 203 (Quinoline Yellow WS) 0.0001, with ethylenediaminehydroxyethyl trisodium triacetate 0.02, photostabilizer blend amount 0.01",0.72
same,Appearance (visual determination),"[4]; drug dl-α-tocopherol 2-L-ascorbic acid phosphate diester potassium salt 0.01, no sequestering agent",Δ
same,Appearance (visual determination),"[4]; drug dl-α-tocopherol 2-L-ascorbic acid phosphate diester potassium salt 0.01, with ethylenediaminehydroxyethyl Triacetate trisodium 0.03",◯
same,Appearance (visual determination),[5]; [7],◯
same,Δ E,[5]; [7],1.28
same,Appearance (visual determination),[5]; [8],◯
same,Δ E,[5]; [8],0.45
same,Appearance (visual determination),[5]; [9],◯
same,Δ E,[5]; [9],0.52
same,Appearance (visual determination),[5]; [10],◯
same,Δ E,[5]; [10],0.53
same,Appearance (visual determination),[5]; [11],◯
same,Δ E,[5]; [11],1.01
same,Appearance (visual determination),[5]; [12],◯
same,Δ E,[5]; [12],0.68
"Oc1ccc(N2CCOCC2)nn1 [3-Hydroxy-6-morpholinopyridazine, 6-Morpholino-3-hydroxypyridazine]",odor determination,"[1]; natural perfume Nelori oil, photostabilizer 0.1 wt %",◯
same,odor determination,"[1]; natural perfume Ylang ylang oil, photostabilizer 0.2 wt %",◯
same,odor determination,"[1]; synthetic perfume Limonene oil, photostabilizer 0.05 wt %",◯
same,odor determination,"[1]; synthetic perfume Linalool, photostabilizer 0.05 wt %",◯
same,Appearance (visual determination),[2]; [13],◯
same,Remaining ratio (%),[2]; [13],98.0%
same,Δ E,"[3]; dye Green 3 (Fast Green FCF) 0.001, photostabilizer 0.02, no sequestering agent",0.75
same,Δ E,"[3]; dye Green 3 (Fast Green FCF) 0.001, photostabilizer 0.02, with ethylenediaminetetraacetate trisodium 0.1",0.32
same,Δ E,"[3]; dye Green 3 (Fast Green FCF) 0.001, photostabilizer 0.02, with sodium metaphosphate 0.1",0.36
same,Δ E,"[3]; dye Green 3 (Fast Green FCF) 0.001, photostabilizer 0.02, with sodium polyphosphate 0.1",0.52
same,Δ E,"[3]; dyes Red 106 (Acid Red) 0.00001 + Yellow 5 (Sunset Yellow FCF) 0.0001, no sequestering agent, photostabilizer blend amount 0.01",1.38
same,Δ E,"[3]; dyes Red 106 (Acid Red) 0.00001 + Yellow 5 (Sunset Yellow FCF) 0.0001, with ethylenediaminetetraacetate trisodium 0.02, photostabilizer blend amount 0.01",0.92
same,Appearance (visual determination),"[4]; drug L-ascorbic acid 2-glucoside 2.0, no sequestering agent",◯
same,Appearance (visual determination),"[4]; drug L-ascorbic acid 2-glucoside 2.0, with sodium metaphosphate 0.03",◯
same,Appearance (visual determination),[5]; [7],◯
same,Δ E,[5]; [7],1.32
same,Appearance (visual determination),[5]; [8],◯
same,Δ E,[5]; [8],0.43
same,Appearance (visual determination),[5]; [9],◯
same,Δ E,[5]; [9],0.54
same,Appearance (visual determination),[5]; [10],◯
same,Δ E,[5]; [10],0.53
same,Appearance (visual determination),[5]; [14],◯
same,Δ E,[5]; [14],0.52
same,Appearance (visual determination),[5]; [15],◯
same,Δ E,[5]; [15],0.44

# Reference: patent US6676932B2, “Ultraviolet absorbent, photostabilizer, ultraviolet ray-absorbing composition, photostabilized composition and external preparation for skin” (Shiseido Co., Ltd., priority 2001, dated 2004)
